Data taken from US6852531B2, “Compositions and methods for reproducing and modulating mammalian messenger RNA decapping” (University of Medicine & Dentistry of NJ, priority 2000, dated 2005).

Experiments:
[1] = tested on: decapping activity in HeLa S100 cytoplasmic extract; experiment: In vitro decapping assay (release of 7meGDP from cap-labeled RNA, TLC); type: biochemical, human; settings: for effect of competitor RNA on decapping of AU-rich element-containing RNA substrate: FIG. 6; for activation of decapping in human cytoplasmic extract: cold cap analog added to standard S100 extract
Description: In one embodiment of a manual procedure, the components are as follows (referred to herein as “standard reaction conditions”): • 1 microliter ^7meGpppG or ^7meGTP competitor (50-500 ng/microliter); • 1 microliter RNA (˜5-200 fmol; labeled at the alpha phosphate of the cap); • 4 microliters S100 extract; and • 4 microliters water.
The mixture is incubated at 30° C. for 30 min; aliquots are then taken at designated time points to follow the kinetics of decapping by visualization of the product of decapping, ^7meGDP, by, for example, thin layer chromatography on a cellulose PEI sheet using a mobile phase of 0.45 M ammonium sulfate. Other means for identifying the decapping product are fully embraced herein.
Decapping assays were performed using conditions adapted from Zhang et al (1999b). 10-50 fmoles of cap-labeled RNAs were incubated with 4 microliters HeLa S100 cytoplasmic extract in a 10 microliter reaction in the presence of CE buffer (50 mM Tris pH 7.9, 30 mM (NH4)2SO4, 1 mM MgCl2) and 20 micromolar cap analog (where indicated). Reaction mixtures were incubated at 30° C. for the times indicated and stopped by the addition of 1 microliter of 0.25 M EDTA. Reaction products were separated and identified by thin layer chromatography on PEI cellulose sheets developed in 450 mM (NH4)2SO4. Quantitation was performed using a Molecular Dynamics Phosphorimager. Twenty micrograms of ^7meGMP and ^7meGDP were routinely spotted on TLC plates along with reaction samples to serve as markers that could be visualized by UV shadowing.

[2] = tested on: unidentified 40 kDa species (ARE-specific RNA binding protein); experiment: UV cross-linking of ARE-binding proteins with ARE competitor RNA; design: species or system human; settings: S100 extract
Description: (§1) UV cross-linking analysis was performed as described (Wilusz and Shenk, 1988). Briefly, 20-50 fmoles of cap-radiolabeled RNA was incubated in the in vitro decapping assay for 5 min. and then reaction mixtures were irradiated on ice for 10 min. using a 15W germicidal light. RNases A and T1 were added and proteins covalently attached to short radioactive RNA oligomers were analyzed on a 10% acrylamide gel containing SDS. For analysis of UV cross-linked DAN/PARN protein by immunoprecipitation using a polyclonal antibody obtained from M. Wormington (Korner et al., 1998), 400 ul of NET2 buffer (50 mM Tris pH 7.6, 150 mM NaCl, 0.01% NP40) was added to reaction mixtures following RNase treatment and reaction mixtures were centrifuged for 4 min. Pre-cleared samples were incubated on ice with 2-5 microliters of specified rabbit polyclonal antisera for 1 hr. Antigen antibody complexes were collected on protein A-positive Staphylococcus aureus cells, washed five times in RIPA buffer (50 mM Tris, pH 7.6, 150 mM NaCl, 0.1% SDS, 1% NP40, 0.5% deoxycholate), and immunoprecipitated cross-linked proteins were analyzed on a 10 or 15% acrylamide gel containing SDS.

HuR = molecular target: T1, HuR (Homo sapiens, UniProt Q15717); experiment: as above; settings: S100 extract
T1 construct: endogenous in cells; host or cells: HeLa spinner cells, S100 cytoplasmic extract
T1 sequence (Q15717 whole entry): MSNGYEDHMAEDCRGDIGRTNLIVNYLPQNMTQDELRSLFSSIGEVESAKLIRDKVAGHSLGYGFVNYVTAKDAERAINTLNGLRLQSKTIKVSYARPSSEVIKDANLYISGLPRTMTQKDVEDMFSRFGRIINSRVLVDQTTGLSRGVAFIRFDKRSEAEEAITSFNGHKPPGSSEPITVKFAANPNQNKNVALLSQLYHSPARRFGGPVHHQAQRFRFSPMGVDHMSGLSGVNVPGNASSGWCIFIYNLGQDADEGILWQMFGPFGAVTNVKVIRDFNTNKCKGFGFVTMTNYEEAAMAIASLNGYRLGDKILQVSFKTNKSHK
Description: as §1

[3] = molecular target: T2, 24 kDa cap binding protein (eIF4E) (Homo sapiens, UniProt P06730); experiment: UV cross-linking of cap-labeled RNA to cap-binding proteins
T2 construct: endogenous in cells; host or cells: HeLa spinner cells, S100 cytoplasmic extract
T2 sequence (P06730 whole entry): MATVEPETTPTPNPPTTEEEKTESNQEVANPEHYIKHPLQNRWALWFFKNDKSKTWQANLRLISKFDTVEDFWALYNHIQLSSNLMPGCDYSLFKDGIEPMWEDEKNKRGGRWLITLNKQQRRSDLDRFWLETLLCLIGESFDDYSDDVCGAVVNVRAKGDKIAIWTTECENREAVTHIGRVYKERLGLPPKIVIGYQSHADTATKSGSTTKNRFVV
Description: as §1

deadenylase DAN/PARN = molecular target: T3, deadenylase DAN/PARN (Homo sapiens, UniProt O95453); experiment: UV cross-linking / immunoprecipitation of DAN/PARN; type: binding
T3 construct: incubated HeLa S100 extracts using cap-labeled GemARE-A60 RNA under decapping conditions; endogenous in cells; host or cells: HeLa spinner cells, S100 cytoplasmic extract
T3 sequence (O95453 1-639): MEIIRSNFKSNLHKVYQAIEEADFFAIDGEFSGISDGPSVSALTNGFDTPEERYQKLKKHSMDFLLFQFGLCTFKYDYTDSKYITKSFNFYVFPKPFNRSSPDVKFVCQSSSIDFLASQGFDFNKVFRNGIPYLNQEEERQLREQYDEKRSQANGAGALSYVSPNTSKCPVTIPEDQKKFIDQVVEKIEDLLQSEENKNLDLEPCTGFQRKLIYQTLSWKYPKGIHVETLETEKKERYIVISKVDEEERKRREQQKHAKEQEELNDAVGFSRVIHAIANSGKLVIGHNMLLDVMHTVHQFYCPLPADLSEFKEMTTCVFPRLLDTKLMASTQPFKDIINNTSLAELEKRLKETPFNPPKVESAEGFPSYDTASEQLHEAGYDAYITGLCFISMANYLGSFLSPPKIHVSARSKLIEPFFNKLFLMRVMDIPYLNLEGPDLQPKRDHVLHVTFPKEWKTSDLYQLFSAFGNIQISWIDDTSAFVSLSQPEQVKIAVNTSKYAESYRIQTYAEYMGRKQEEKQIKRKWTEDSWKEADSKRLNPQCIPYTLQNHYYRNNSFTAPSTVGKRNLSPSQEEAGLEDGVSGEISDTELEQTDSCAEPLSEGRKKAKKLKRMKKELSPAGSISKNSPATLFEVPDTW
Description: as §1

[4] = titration, GemARE-A0 RNA, FIG. 2D
[5] = 5 micromolar cap analog, FIG. 2D

Question: For “5′-GGAUUAACUAAUUGAUACCGCGUAUACACGCGG (RNA, backbone not given here) [control competitor RNA]”, which “effect of competitor RNA on decapping of AU-rich element-containing RNA substrate” value ([1]; with cap analog) is on record?
Answer: no effect on decapping efficiency

Question: For “5′AUUAUUUAUUAUUUAUUUAUUAUUUAUUUAUUUA (RNA, backbone not given here) [ARE competitor RNA]”, which “substrate dependence of the reduction in decapping efficiency” value ([1]; Gem-A0 versus GemARE-A0, FIG. 6B) is on record?
Answer: only observed with RNA substrates that contained an AU-rich element

Question: And the “effect of competitor RNA on decapping of AU-rich element-containing RNA substrate” value ([1]; with cap analog)?
Answer: significantly reduced decapping

Question: What about the “competition of 40 kDa species cross-linking” value [2] of the same molecule?
Answer: competed

Question: What about the “competition of HuR cross-linking” value (HuR) of the same molecule?
Answer: competed

Question: With Nc1nc2c(ncn2[C@@H]2O[C@H](COP(=O)(O)OP(=O)(O)OP(=O)(O)OC[C@H]3O[C@@H](n4cnc5c(=O)[nH]c(N)nc54)[C@H](O)[C@@H]3O)[C@@H](O)[C@H]2O)c(=O)[nH]1 [GpppG] as the molecule, how does the “ability of methylated versus non-methylated cap analogs to activate decapping” value ([1]; HeLa S100, cap-labeled GemARE-A60 RNA, FIG. 2A) read?
Answer: the presence of the methyl group on the cap analog was absolutely required to activate decapping

Question: How did the “activation of decapping in human cytoplasmic extract” value [1] turn out when Cn1c[n+]([C@@H]2O[C@H](COP(=O)([O-])OP(=O)(O)OP(=O)(O)O)[C@@H](O)[C@H]2O)c2nc(N)[nH]c(=O)c21 [^7meGTP] was run?
Answer: activates the human cytoplasmic extract

Question: For Cn1c[n+]([C@@H]2O[C@H](COP(=O)(O)OP(=O)(O)OP(=O)(O)OC[C@H]3O[C@@H](n4cnc5c(=O)[nH]c(N)nc54)[C@H](O)[C@@H]3O)[C@@H](O)[C@H]2O)c2nc(N)[nH]c(=O)c21 [^7meGpppG], which “activation of decapping of RNA substrates (accumulation of 7meGDP)” value ([1]; 20 micromolar, 3 independently prepared HeLa cytoplasmic extracts, FIG. 1B) is on record?
Answer: activated decapping

Question: And the “activation of decapping in human cytoplasmic extract” value [1]?
Answer: activates the human cytoplasmic extract

Question: What about the “amount of cap analog giving only partial activation of decapping” value [1, 4] of the same molecule?
Answer: 5 micromolar

Question: What about the “amount of cap analog required for full activation of decapping” value [1, 4] of the same molecule?
Answer: 10 micromolar

Question: And the “sequestration of 24 kDa cap binding protein” value [3, 5]?
Answer: fully sequestered

Question: What about the “competition for cross-linking of 24 kDa protein to cap” value ([3]; increasing amounts, HeLa S100, FIG. 2B) of the same molecule?
Answer: specifically competed

Question: And the “full sequestration of DAN/PARN” value (deadenylase DAN/PARN; [5])?
Answer: not

Question: What about the “competition for cap binding by DAN/PARN” value (deadenylase DAN/PARN; FIG. 2C) of the same molecule?
Answer: specifically competed

Question: And the “amount required to fully sequester DAN/PARN” value (deadenylase DAN/PARN; FIG. 2D)?
Answer: 10 µM

Question: For poly(C), which “effect of other homopolymer on decapping” value ([1]; all RNA substrates tested, with cap analog, FIG. 4B) is on record?
Answer: did not appreciably affect decapping
